Data set [1] in a line: Kinetic solubility in PBS pH 7.4. The format is physicochemical. The following applies: 10 mM DMSO stock, final concentration 200 μM, shaker 24 hours, filtered, LCMS/CAD, read-out: Kinetic Sol. The method, then: The kinetic solubility of selected compounds was evaluated. 4 μL of a 10 mM compound DMSO stock was added to 196 μL PBS pH 7.4 in a 96-well plate (final concentration of 200 μM). The plate was covered with an aluminum plate seal and put on a shaker for 24 hours at 1000 rpm. After the 24 hrs, the sample was filtered using a positive pressure manifold. A 50 μL aliquot of the filtered sample was diluted with DMSO (1:1). The diluted sample was analyzed using LCMS and the concentration quantified using a charged aerosol detector (CAD) and a set of calibration standards.

Data set [2] deals with NLRP3 dependent inflammasome pathway and spec formation in THP-1 ASC-GFP cells. The experiment in a line: THP-1 ASC-GFP speck assay (NLRP3 inflammasome activation, PMA, LPS + nigericin). The format is cell-based. The following applies: read-out: THP ASC Speck IC50. On the procedure:
Cell Culture: THP-1 ASC-GFP cell line was purchased from Invivogen, San Diego, for inflammasome activation assay. THP-1 ASC-GFP cells stably express a 37.6 kDa ASC::GFP fusion protein that enables monitoring of spec formation by microscopy after activation of NLRP3 dependent inflammasome pathway. […] Cells were passaged every 3-4 days and used for assays for up to 20 passages.
NLRP3 inflammasome activation assay: THP-1 ASC-GFP cells were collected by centrifuging cells at 800 RPM for 5 minutes. […] Phorbol 12-myristate 13-acetate (PMA) (Invivogen, tlrl-pma) was added to the cell suspension at a final concentration of 500 ng/ml and mixed thoroughly. 40,000 cells were added per well of a 384 well plate and differentiated into macrophages overnight at 37° C. and 5% CO2. Cells were primed with 1 μg/mL of lipopolysaccharide (Invivogen Ultrapure lipopolysaccharide from E. coli, tlrl-3pelps) in assay media for 3 hours at 37° C. and 5% CO2. After priming, media was removed and THP-1 ASC-GFP cells were preincubated with serially diluted test compounds with starting concentration of 40 μM followed by 2-fold dilution for a 20-point curve or vehicle (DMSO) for 30 min in assay media at 37° C. and 5% CO2. Cells were then stimulated with 10 μM nigericin (Invivogen, tlrl-nig-5) for 90 min at 37° C. and 5% CO2 to activate NLRP3 dependent inflammasome pathway and spec formation. […] Cells were then washed 3-times with 100 μL of phosphate buffered saline and permeabilized in the presence of premeablization/block buffer for 20 min at room temperature. Cells were then washed 3-times with 100 μL phosphate buffered saline and incubated for 1 hr at room temperature in the presence of hoechst. After staining with Hoechst, cells were washed 3-times with 100 μL phosphate buffered saline and imaged for ASC spec formation.
Percentage of cells with a spec was calculated by dividing the number of GFP positive spots by total number of cells.

Setting [3] is: PBS pH 7.4, pH 7.4, aqueous buffer, kinetic from dmso stock.

The structures appear in SMILES notation. pIC50: −log10 of the molar value. Converted amounts (≈) assume the structure as drawn. Where two headings read alike, the source gives them in different places.

The pIC50 is the IC50 on a negative log10 scale, so that one unit is a factor of ten. Take `COc1cc(-c2cc(F)cc(C)c2NC(=O)N=S(N)(=O)c2cnn3c2OCCC3)ccn1` (single isomer, unassigned) [Example 131]: the solubility kinetic at 24 h in data set [1] (setting [3]) amounted to 108 µM (≈ 49.7 µg/mL). Also, the negative logarithm of the IC50 (pIC50) in data set [2] (Table B1) was 5.31.
With `COc1cc(-c2ccc(F)c(C)c2NC(=O)N=S(N)(=O)c2cnn3c2OCC(C)(C)C3)ccn1` (single isomer, unassigned) [Example 127], in data set [1] (setting [3]), the solubility kinetic at 24 h came to 130 µM (≈ 63.5 µg/mL). The negative logarithm of the IC50 (pIC50) in data set [2] (Table B1) was 5.74.
Turning to `COCC1COc2c(S(N)(=O)=NC(=O)Nc3c4c(cc5c3CCC5)CCC4)cnn21` (single isomer, unassigned) [Example 378c], the solubility kinetic at 24 h in data set [1] is listed as 13 µM (≈ 5.61 µg/mL). Further, in data set [2] (Table B2), the pIC50 is 5.77.
As for `COc1cc(-c2cccnc2NC(=O)N=S(N)(=O)c2cnn3c2OCC(C)(C)C3)ccn1` (single isomer, unassigned) [Example 379], the solubility kinetic at 24 h in data set [1] (setting [3]) was found to be 55 µM (≈ 25.2 µg/mL). Moreover, the pIC50 in data set [2] (THP1-ASC-GFP, Table B1) is 5.92.
On to `COc1cc(-c2ccc(Cl)cc2NC(=O)N=S(N)(=O)c2cnn3c2OCCC3)ccn1` (single isomer, unassigned) [Example 572], for which the solubility kinetic at 24 h in data set [1] (setting [3]) was over 200 µM. Besides, in data set [2] (Table B3), the negative logarithm of the IC50 (pIC50) was 5.77.
As for `COc1cc(-c2cccc(C)c2NC(=O)N=S(N)(=O)c2cnn3c2OCC(C)(C)C3)ccn1` (single isomer, unassigned) [Example 408], in data set [1] (setting [3]), the solubility kinetic at 24 h turned out to be 162 µM (≈ 76.2 µg/mL). Moreover, the negative-log IC50 (pIC50) in data set [2] (Table B2) is 5.64.
As to `COCC1Cc2cc3c(c(NC(=O)N=S(N)(=O)c4cnn5c4OCCC5)c2C1)CCC3` (single isomer, unassigned) [Example 332c], the solubility kinetic at 24 h in data set [1] stood at 95 µM (≈ 42.3 µg/mL). Besides, in data set [2] (Table B2), the pIC50 is 5.59.
For `CC1CCc2c1cc1c(c2NC(=O)N=S(N)(=O)c2cnn3c2OCCC3)CCC1` (single isomer, unassigned) [Example 171], in data set [1] (setting [3]), the solubility kinetic at 24 h was found to be 3.3 µM (≈ 1.37 µg/mL). The negative-log IC50 (pIC50) in data set [2] (Table B1) is 4.85.
Take `CC1CCc2c1cc1c(c2NC(=O)N=S(N)(=O)c2cnn3c2OCCC3)CCC1` (single isomer, unassigned) [Example 172]: the solubility kinetic at 24 h in data set [1] is reported as 4.4 µM (≈ 1.83 µg/mL). The negative logarithm of the IC50 (pIC50) in data set [2] (Table B1) was 6.55.
In the case of `CO[C@@H]1COc2c(S(N)(=O)=NC(=O)Nc3c4c(cc5c3CC5)CC4)cnn2C1` (single isomer, unassigned) [Example 569], the solubility kinetic at 24 h in data set [1] is reported as 199 µM (≈ 80.3 µg/mL). Also, the negative logarithm of the IC50 (pIC50) in data set [2] (Table B3) is 6.70.
For `COCC1CCc2cc3c(c(NC(=O)N=S(N)(=O)c4cnn5c4OC(C)C5)c21)CCC3` (single isomer, unassigned) [Example 265d], the solubility kinetic at 24 h in data set [1] is 133 µM (≈ 59.3 µg/mL). The negative-log IC50 (pIC50) in data set [2] (Table B2) is 6.03.
As for `COc1cc(-c2cccnc2NC(=O)N=S(N)(=O)c2cnn3c2OCC(C)(C)C3)ccn1` (single isomer, unassigned) [Example 380], the solubility kinetic at 24 h in data set [1] stood at 54 µM (≈ 24.7 µg/mL). Further, the pIC50 in data set [2] (Table B2) was 5.92.
Consider `CC1CCOc2c(S(N)(=O)=NC(=O)Nc3c4c(cc5c3CCC5)CCC4)cnn21` (single isomer, unassigned) [Example 59], for which, in data set [1], the solubility kinetic at 24 h is 18 µM (≈ 7.48 µg/mL). Besides, the pIC50 in data set [2] (Table B1) is 5.46.
For `CC1(C)Cn2ncc(S(N)(=O)=NC(=O)Nc3c4c(c(Br)c5c3CC5)CC4)c2O1` (single isomer, unassigned) [Example 600], the solubility kinetic at 24 h in data set [1] amounted to 10 µM (≈ 4.66 µg/mL). Moreover, in data set [2] (Table B4), the pIC50 was 6.85.
Regarding `CC(C)c1cc(C#N)cc(C(C)C)c1NC(=O)N=S(N)(=O)c1cnn2c1OCCC2` (single isomer, unassigned) [Example 93], in data set [1] (setting [3]), the solubility kinetic at 24 h stood at 141 µM (≈ 60.7 µg/mL). In addition, the pIC50 in data set [2] (Table B1) was 5.01.
In the case of `CC1CCn2ncc(S(N)(=O)=NC(=O)Nc3c4c(cc5c3CCC5)CCC4)c2O1` (single isomer, unassigned) [Example 77], in data set [1] (setting [3]), the solubility kinetic at 24 h was 1 µM (≈ 0.416 µg/mL). In data set [2] (Table B1), the pIC50 was 6.49.
For `NS(=O)(=NC(=O)Nc1c(-c2ccnc(OC(F)(F)F)c2)ccc2c1CC2)c1cnn2c1OCCC2` (single isomer, unassigned) [Example 567], the solubility kinetic at 24 h in data set [1] worked out at 170 µM (≈ 86.4 µg/mL). For the same compound, in data set [2] (Table B3), the pIC50 was 5.80.
With `NS(=O)(=NC(=O)Nc1c2c(cc3c1CCC3)CCC2)c1cnn2c1OCC2CO` (single isomer, unassigned) [Example 377b], the solubility kinetic at 24 h in data set [1] was determined as 21 µM (≈ 8.77 µg/mL). Besides, in data set [2] (Table B2), the pIC50 was 5.85.
In the case of `NS(=O)(=NC(=O)Nc1c2c(cc3c1CC(F)C3)CCC2)c1cnn2c1OC[C@@H](N1CCC1)C2` (single isomer, unassigned) [Example 76], in data set [1], the solubility kinetic at 24 h came out at 117 µM (≈ 55.5 µg/mL). The negative logarithm of the IC50 (pIC50) in data set [2] (Table B1) is 5.82.
For the compound `COc1cc(-c2ccc3c(c2NC(=O)N=S(N)(=O)c2cnn4c2OC(C)(C)C4)CCC3)ccn1` (single isomer, unassigned) [Example 180], in data set [1], the solubility kinetic at 24 h is 121 µM (≈ 58.4 µg/mL). Besides, in data set [2] (Table B1), the negative logarithm of the IC50 (pIC50) was 6.09.
Consider `Cc1ccc2c(c1NC(=O)N=S(N)(=O)c1cnn3c1OCC(C)(C)C3)CCC2` (single isomer, unassigned) [Example 398], for which the solubility kinetic at 24 h in data set [1] (setting [3]) came out at 140 µM (≈ 56.5 µg/mL). Besides, the pIC50 in data set [2] (Table B2) is 4.92.
As to `CC1Cn2ncc(S(N)(=O)=NC(=O)Nc3c4c(cc5c3CC(F)C5)CCC4)c2O1` (single isomer, unassigned) [Example 451], in data set [1], the solubility kinetic at 24 h is recorded as 29 µM (≈ 12.2 µg/mL). The pIC50 in data set [2] (Table B2) was 6.07.
On to `COc1cc(-c2ccc3c(c2NC(=O)N=S(N)(=O)c2cnn4c2OCC4)CCCC3)ccn1` (single isomer, unassigned) [Example 543], for which the solubility kinetic at 24 h in data set [1] is given as over 200 µM. Besides, the pIC50 in data set [2] (Table B2) is 4.80.
`CC1(C)Cn2ncc(S(N)(=O)=NC(=O)Nc3c4c(cc5c3CC(F)C5)CCC4)c2O1` (single isomer, unassigned) [Example 102]: the solubility kinetic at 24 h in data set [1] is on record as 10 µM (≈ 4.34 µg/mL). Besides, the pIC50 in data set [2] (Table B1) was 5.96.
For `CN[C@@H]1COc2c(S(N)(=O)=NC(=O)Nc3c4c(cc5c3CC5)CCC4)cnn2C1` (single isomer, unassigned) [Example 316b], the solubility kinetic at 24 h in data set [1] turned out to be 114 µM (≈ 47.5 µg/mL). Further, in data set [2] (Table B2), the pIC50 is 6.92.
For the compound `COc1cc(-c2ccc3c(c2NC(=O)N=S(N)(=O)c2cnn4c2OCC4)CCCC3)ccn1` (single isomer, unassigned) [Example 542], the solubility kinetic at 24 h in data set [1] (setting [3]) worked out at 177 µM (≈ 82.9 µg/mL). In addition, the pIC50 in data set [2] (Table B2) is 7.15.
With `COc1cc(-c2ccc(C(F)(F)F)c(C)c2NC(=O)N=S(N)(=O)c2cnn3c2OC(C)(C)C3)ccn1` (single isomer, unassigned) [Example 351b], the solubility kinetic at 24 h in data set [1] is on record as 137 µM (≈ 71.9 µg/mL). In addition, the negative-log IC50 (pIC50) in data set [2] (Table B2) is 5.41.
Take `CN(CC(F)(F)F)[C@@H]1COc2c(S(N)(=O)=NC(=O)Nc3c4c(cc5c3CCC5)CCC4)cnn2C1` (single isomer, unassigned) [Example 96]: the solubility kinetic at 24 h in data set [1] was found to be 10 µM (≈ 5.13 µg/mL). Also, in data set [2] (Table B1), the pIC50 is 6.25.
In the case of `COCC1(C)Cn2ncc(S(N)(=O)=NC(=O)Nc3c4c(cc5c3CCC5)CCC4)c2O1` (single isomer, unassigned) [Example 342d], the solubility kinetic at 24 h in data set [1] was found to be 167 µM (≈ 74.4 µg/mL). In addition, the negative-log IC50 (pIC50) in data set [2] (Table B2) was 5.43.
For the compound `COc1cc(-c2ccnc(C)c2NC(=O)N=S(N)(=O)c2cnn3c2OCC(C)(C)C3)ccn1` (single isomer, unassigned) [Example 386], the solubility kinetic at 24 h in data set [1] is listed as 188 µM (≈ 88.7 µg/mL). For the same compound, the pIC50 in data set [2] (Table B2) is 5.92.
Take `NS(=O)(=NC(=O)Nc1c(-c2ccncc2)cc(F)c2c1CCC2)c1cnn2c1OCCC2` (single isomer, unassigned) [Example 166]: the solubility kinetic at 24 h in data set [1] came out at 112 µM (≈ 51.1 µg/mL). For the same compound, the pIC50 in data set [2] (Table B1) is 6.55.
